What was measured:
Type in all cases: in vivo
[1] = test system: adult mosquitoes Anopheles funestus strain FUMOZ-R; assay: Anopheles funestus test (ANPHFU surface treatment & contact assay); details: 24 hours after contact, read-out: efficacy (mortality); for mortality at 20 mg/m2: surface concentration 20 mg/m^2, 30 min exposure; for mortality at 4 mg/m2: surface concentration 4 mg/m^2, 30 min exposure
Procedure: Anopheles funestus Test (ANPHFU Surface Treatment & Contact Assay) • Solvent: Aceton+2000 ppm rapeseed oil methyl ester (RME)
In order to produce a sufficient, active ingredient containing solution it is necessary to solve the test compound in the solvent-mix (acetone at 2 mg/ml/RME 2000 ppm). This solution is pipetted onto a glazed tile and after evaporation of the acetone, adult mosquitoes of the species Anopheles funestus strain FUMOZ-R (Hunt et al., Med. Vet. Entomol. 2005 September; 19(3): 271-275) are placed onto the dried surface. The exposure time is 30 minutes.
(§1) Mortality in percent (%) is determined 24 hours after contact of the insects to the treated surface. 100% mortality means that all tested insects are dead, whereas 0% means that no insect died.

[2] = test system: adult flies Musca domestica strain WHO-N; assay: Musca domestica test (MUSCDO surface treatment & contact assay); details: 24 hours after contact, read-out: efficacy (mortality); for mortality at 4 mg/m2: surface concentration 4 mg/m^2, 30 min exposure; for mortality at 20 mg/m2: surface concentration 20 mg/m^2, 30 min exposure
Summary of the method: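 Percent kill read 24 h post-contact, after adult flies (strain WHO-N) spent 30 min on a glazed tile treated with test solution (acetone, 2 mg/ml, plus 2000 ppm rapeseed oil methyl ester) and dried.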

[3] = test system: green peach aphid (Myzus persicae); assay: Myzus persicae spray test; details: foliar, 120 h, Chinese cabbage leaf disks, after 5 days
Summary of the method: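 Percent mortality read 5 days after spraying, where 100% is total kill and 0% none. The spray contained compound in acetone plus dimethylformamide, diluted with 1000 ppm emulsifier water. It was applied to Brassica pekinensis leaf disks carrying mixed-instar green peach aphids.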

[4] = test system: fall armyworm larvae (Spodoptera frugiperda); assay: Spodoptera frugiperda spray test (maize leaf sections); details: 168 h
Summary of the method: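 Percent kill of Spodoptera frugiperda caterpillars read at day 7. Larvae placed on dried Zea mays leaf pieces previously sprayed with test preparation, made from acetone plus DMF and diluted with emulsifier-containing water (1000 ppm).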

[5] = test system: adult mosquitoes Aedes aegypti strain MONHEIM; assay: Aedes aegypti test (AEDSAE surface treatment & contact assay); details: 24 hours after contact, read-out: efficacy (mortality); for mortality at 4 mg/m2: surface concentration 4 mg/m^2, 30 min exposure; for mortality at 20 mg/m2: surface concentration 20 mg/m^2, 30 min exposure
Procedure: Aedes aegypti test (AEDSAE surface treatment & contact assay) • Solvent: Aceton+2000 ppm rapeseed oil methyl ester (RME)
In order to produce a sufficient, active ingredient containing solution it is necessary to solve the test compound in the solvent-mix (acetone at 2 mg/ml/RME 2000 ppm). This solution is pipetted onto a glazed tile and after evaporation of the acetone, adult mosquitoes of the species Aedes aegypti strain MONHEIM are placed onto the dried surface. The exposure time is 30 minutes.
as §1

[6] = test system: larvae of the banded cucumber beetle (Diabrotica balteata); assay: Diabrotica balteata spray test; details: 168 h, 100 g/ha (=32 μg/well), wheat seeds, after 7 days, read-out: efficacy (seedling growth)
Summary of the method: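 Efficacy in % was read 7 days after infesting with 10-20 larvae per unit. Before infestation, 1-day-germinated wheat seedlings (5 per well) were sprayed with the active ingredient, formulated in acetone and dimethylformamide plus emulsifier and diluted with water containing emulsifier.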

[7] = test system: adult engorged female ticks (Rhipicephalus microplus); assay: Rhipicephalus (Boophilus) microplus injection test; details: 168 h, egg deposition after 7 days, read-out: efficacy (infertile eggs); for pest or weed control at 0.004 mg: 4 μg/animal
Summary of the method: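 Five adult engorged female ticks each injected into the abdomen with 1 μL of compound in DMSO, then kept in a climate chamber. Fertile egg deposition assessed after 7 days, with unclear eggs held until hatching around 42 days; efficacy 100% means all eggs infertile, 0% all fertile.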

[8] = test system: green peach aphid (Myzus persicae); assay: Myzus persicae oral test; details: 120 h
Summary of the method: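 Compound was dissolved in acetone, diluted with water and mixed into IPL41 insect medium with sugar under a parafilm seal. A mixed aphid population fed through the parafilm, and mortality (%) was scored after 5 days.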

[9] = test system: adult unfed cat fleas (Ctenocephalides felis); assay: Ctenocephalides felis oral test; details: 48 h
Summary of the method: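 About 20 adult unfed fleas fed through parafilm on cattle blood containing compound (DMSO stock diluted in blood), blood held at 37 °C and fleas at room temperature. Mortality (%) scored after 2 days.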

[10] = test system: adult cat fleas (Ctenocephalides felis); assay: Ctenocephalides felis in-vitro contact test, adult cat flea; details: 5 μg/cm^2 (=500 g/ha), after 48 hours
Summary of the method: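 After 48 h of room-temperature exposure in tubes whose walls carried dried compound residue (5 μg/cm^2, from 900 ppm acetone solution), adult cat fleas (5-10 per tube) were heat-challenged at 45-50° C up to 5 min. Fleas unable to climb away were counted dead or moribund, expressed as % efficacy.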

[11] = test system: Rhipicephalus microplus larvae (strain Parkhurst, resistant against synthetic pyrethroids); assay: Rhipicephalus (Boophilus) microplus in-vitro contact test, larval cattle tick; details: 5 μg/cm^2 (=500 g/ha), after 48 hours, read-out: efficacy (larvae dead or moribund)
Summary of the method: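 Larvae exposed by contact to a dried acetone film on glass; a 900 ppm solution yields 5 μg/cm^2. Scoring after 48 h at 27° C. counts dead plus moribund larvae as efficacy.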

[12] = test system: adult brown dog ticks (Rhipicephalus sanguineus); assay: Rhipicephalus sanguineus in-vitro contact test with adult brown dog ticks; details: 5 μg/cm^2 (=500 g/ha), after 48 hours, read-out: efficacy (ticks dead or moribund)
Summary of the method: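 Read-out: % efficacy as dead or moribund ticks, judged 48 h after exposure by failure to climb away from a 45-50° C heating plate within 5 min. Tubes were coated with acetone solution (900 ppm = 5 μg/cm^2 surface dose) and held 5-10 adults each at room temperature.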

[13] = test system: larvae of the southern green stink bug (Nezara viridula); assay: Nezara viridula spray test; details: in Hordeum vulgare, 96 h
Summary of the method: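 Mortality (%) of stink bug larvae on treated barley (Hordeum vulgare) was scored 4 days after infestation. Test solutions came from an acetone/DMF concentrate diluted with water containing 1000 ppm emulsifier and were sprayed onto plants before larvae were added.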

[14] = test system: brown planthopper (Nilaparvata lugens); assay: Nilaparvata lugens spray test; details: 96 h, rice plants, after 4 days
Procedure: Nilaparvata lugens—Spray Test • Solvent: 78.0 parts by weight of acetone • 1.5 parts by weight of dimethylformamide • Emulsifier: alkylarylpolyglycol ether
To produce a suitable preparation of active compound, 1 part by weight of active compound is mixed with the stated amount of solvents and is diluted with water, containing an emulsifier concentration of 1000 ppm, to the desired concentration. Further test concentrations are prepared by dilution with emulsifier containing water.
Rice plants (Oryza sativa) are sprayed with a preparation of the active ingredient of the desired concentration and the plants are infested with the brown planthopper (Nilaparvata lugens).
After 4 days mortality in % is determined. 100% means all planthoppers have been killed and 0% means none of the planthoppers have been killed.

| Compound | mortality at 20 mg/m2 [1] [%] | mortality at 4 mg/m2 [2] [%] | mortality at 20 mg/m2 [2] [%] | mortality at 100 g/ha [3] [%] | mortality at 100 g/ha [4] [%] | mortality at 4 mg/m2 [5] [%] | mortality at 20 mg/m2 [5] [%] | pest or weed control at 32 µg/disc, 100 g/ha [6] [%] | pest or weed control at 0.004 mg [7] [%] | mortality at 4 ppm [8] [%] | mortality at 100 ppm [9] [%] | efficacy (fleas dead or moribund) [10] [%] | pest or weed control at 5 µg/cm2 [11] [%] | mortality at 4 mg/m2 [1] [%] | pest or weed control at 5 µg/cm2, 500 g/ha [12] [%] | pest or weed control at 0.02 mg ([7]; 20 μg/animal) [%] | mortality at 500 g/ha [13] [%] | mortality at 100 g/ha ([14]; 100 g/ha) [%] | mortality at 500 g/ha ([14]; 500 g/ha) [%] | mortality at 100 g/ha [13] [%] |
| --- | --- | --- | --- | --- | --- | --- | --- | --- | --- | --- | --- | --- | --- | --- | --- | --- | --- | --- | --- | --- |
| CC(NC(=O)c1cc(OC(F)(F)F)cc(C2(C#N)CC2)c1)c1ncnn1-c1ncc(C#N)s1 (racemic) [I-87, (rac)-3-(1-cyanocyclopropyl)-N-{1-[1-(5-cyano-1,3-thiazol-2-yl)-1H-1,2,4-triazol-5-yl]ethyl}-5-(trifluoromethoxy)benzamide] | 80 to 100 | 90 to 100 | 80 to 100 | 100 | 100 | 80 to 100 | 80 to 100 | 100 |  |  |  |  |  |  |  |  |  |  |  |  |
| CC(NC(=O)c1cc(OC(F)(F)F)cc(C(F)F)c1)c1ncnn1-c1ncc(C#N)s1 (stereo not drawn) [I-26] | 80 to 100 | 90 to 100 | 80 to 100 |  | 100 |  | 80 to 100 | 100 | 100 | 100 | 100 | 100 | 100 |  |  |  |  |  |  |  |
| CC(NC(=O)c1cc(OC(F)F)cc(OC(F)F)c1)c1ncnn1-c1ncc(C#N)s1 (stereo not drawn) [I-31] |  | 90 to 100 | 80 to 100 | 90 | 100 | 80 to 100 | 80 to 100 | 100 | 100 | 100 | 100 |  | 100 | 80 to 100 | 100 |  |  |  |  |  |
| C[C@H](NC(=O)c1cc(Cl)cc(S(C)(=O)=O)c1)c1ncnn1-c1ncc(C#N)s1 [I-36] |  |  |  |  | 100 | 80 to 100 | 80 to 100 | 100 | 100 | 100 | 100 | 100 | 90 | 80 to 100 |  | 100 |  |  |  |  |
| C[C@H](NC(=O)c1cc(C(F)(F)F)cc(C(F)(F)F)c1)c1ncnn1-c1ncc(C(=O)N(C)C)s1 [I-64] | 80 to 100 | 90 to 100 | 80 to 100 | 100 | 100 |  | 80 to 100 | 100 |  |  |  | 100 | 100 |  | 100 |  | 100 | 90 | 90 |  |
| C[C@H](NC(=O)c1cc(Cl)cc(C(F)(F)Cl)c1)c1ncnn1-c1ncc(C#N)s1 [I-85] | 80 to 100 | 90 to 100 | 80 to 100 | 100 | 100 | 80 to 100 | 80 to 100 | 100 |  |  |  |  |  | 80 to 100 |  |  |  |  |  |  |
| C[C@H](NC(=O)c1cc(Br)cc(OC(F)(F)F)c1)c1ncnn1-c1ncc(C(=O)N(C)C)s1 [I-118] | 80 to 100 |  | 80 to 100 |  | 100 |  | 80 to 100 | 100 |  |  |  |  |  | 80 to 100 |  |  | 100 |  |  | 100 |
| C[C@H](NC(=O)c1cc(OC(F)F)cc(SC(F)F)c1)c1ncnn1-c1ncc(C#N)s1 [I-130] | 80 to 100 | 90 to 100 | 80 to 100 | 90 | 100 |  | 80 to 100 | 100 |  |  |  |  |  |  |  |  | 100 |  |  |  |
| C[C@H](NC(=O)c1cc(OC(F)(F)F)cc(C2(C#N)CC2)c1)c1ncnn1-c1ncc(C#N)s1 [I-142] | 80 to 100 | 90 to 100 | 80 to 100 | 90 | 100 | 80 to 100 | 80 to 100 | 100 |  |  |  |  |  |  |  |  | 100 |  |  |  |

From patent US20230065953A1, “NOVEL HETEROARYL-TRIAZOLE COMPOUNDS AS PESTICIDES” (Bayer Aktiengesellschaft, priority 2019, published 2023)
